According to US10336790B2 (priority 2014, dated 2019):
Ends that are not written are not given here.

Tests used:
[1] = tested on: M. tuberculosis MC26020
[2] = tested on: lung epithelial A549 cell line; test: Peptide cytotoxicity, Trypan Blue exclusion assay; assay type: cell-based, human
Protocol: (§1) Cytotoxicity studies were performed using three mammalian cell lines which included mouse macrophage J774.16 cell line, human lung epithelial A549 cell line, and sheep red blood cells (sRBCs) in Trypticase soy agar (TSA). Mouse macrophage J774.16 cell line (maintained in antibiotic-free Dulbecco's modified Eagle's medium containing 20% fetal bovine serum, 5% NCTC 109, 1% nonessential amino acids and 1% glutamine) or human lung epithelial A549 cell line (maintained in antibiotic-free Ham's F12 medium supplemented with 10% fetal bovine serum) was seeded at a density of approximately 1×10^5 cells per ml in Lab-tek Permanox eight-chamber microscopy slides (Nunc, Inc., Naperville, Ill.) and incubated for 3 (J774.16) or 5 (A549) days before use. After cell differentiation to a confluence of 70 to 80%, the culture media was replaced with fresh media containing the different AMPS at 64 μg/ml or at toxic dose (320 μg/ml) or controls (media only for negative control or 50 μM NaN3 for positive control). Similarly, AMPS or 1% Triton 100-X as positive control or media only (negative control) was each added to separate wells and allowed to be absorbed into agar at room temperature. All experiments were incubated for 24 hr at 37° C., 5% CO2. All experiments were done in duplicates. Cytotoxicity for J774.16 or A549 cells was monitored using Trypan Blue exclusion assay and the ratio of dead to viable cells was recorded. For sRBCs, the presence of cell lysis after 24 hr of incubation at 37° C. following treatment indicated cytotoxicity.

[3] = tested on: M. tuberculosis strain MC26230
[4] = tested on: macrophage J774.16 cells; test: Peptide cytotoxicity, Trypan Blue exclusion assay; assay type: cell-based, mouse; conditions: for cell death: 170 μM peptide, negative control 10%
Protocol: as §1

[5] = 170 μM peptide concentration, compared with the negative control

ILSLRWRWKWWKK-NH2 [Peptide B1, ILSLRWRWKWWKK]
MIC [1]: 32 µg/mL

ILSLRWRWWKWKK-NH2 [Peptide B3, ILSLRWRWWKWKK]
cytotoxicity [2, 5]: Slight cytotoxicity | cytotoxicity ([2]; milder than on J774.16 cells, concentration not restated (320 μg/mL in preceding sentence)): some degree of cytotoxicity | MIC [1]: 8 µg/mL | MIC [3]: 64 µg/mL | cytotoxic concentration (320 μg/mL) relative to MIC against mycobacteria and streptococci [4]: at least five times the MIC | cell death ([4]; 24 hr): 40% | cytotoxicity ([4]; 320 μg/mL, 24 hr): moderate cytotoxicity

ILSLRWWRKWWKK-NH2 [Peptide B2, ILSLRWWRKWWKK]
cytotoxicity [2, 5]: Slight cytotoxicity | MIC [1]: 32 µg/mL | cell death ([4]; 24 hr): 20%

IRKLKSWKWLRWL-NH2 [Peptide B4, IRKLKSWKWLRWL]
MIC [1]: 32 µg/mL
